In PMC11354514, “Synthesis and Anti-Cancer Activity of the Novel Selective Glucocorticoid Receptor Agonists of the Phenylethanolamine Series” (International Journal of Molecular Sciences, 2024):
Like-named read-outs stand apart in the source and are kept apart here.

Biological target: T1, glucocorticoid receptor (GR) (Homo sapiens, UniProt P04150)
T1 construct: gene NR3C1
T1 sequence (P04150 1-777): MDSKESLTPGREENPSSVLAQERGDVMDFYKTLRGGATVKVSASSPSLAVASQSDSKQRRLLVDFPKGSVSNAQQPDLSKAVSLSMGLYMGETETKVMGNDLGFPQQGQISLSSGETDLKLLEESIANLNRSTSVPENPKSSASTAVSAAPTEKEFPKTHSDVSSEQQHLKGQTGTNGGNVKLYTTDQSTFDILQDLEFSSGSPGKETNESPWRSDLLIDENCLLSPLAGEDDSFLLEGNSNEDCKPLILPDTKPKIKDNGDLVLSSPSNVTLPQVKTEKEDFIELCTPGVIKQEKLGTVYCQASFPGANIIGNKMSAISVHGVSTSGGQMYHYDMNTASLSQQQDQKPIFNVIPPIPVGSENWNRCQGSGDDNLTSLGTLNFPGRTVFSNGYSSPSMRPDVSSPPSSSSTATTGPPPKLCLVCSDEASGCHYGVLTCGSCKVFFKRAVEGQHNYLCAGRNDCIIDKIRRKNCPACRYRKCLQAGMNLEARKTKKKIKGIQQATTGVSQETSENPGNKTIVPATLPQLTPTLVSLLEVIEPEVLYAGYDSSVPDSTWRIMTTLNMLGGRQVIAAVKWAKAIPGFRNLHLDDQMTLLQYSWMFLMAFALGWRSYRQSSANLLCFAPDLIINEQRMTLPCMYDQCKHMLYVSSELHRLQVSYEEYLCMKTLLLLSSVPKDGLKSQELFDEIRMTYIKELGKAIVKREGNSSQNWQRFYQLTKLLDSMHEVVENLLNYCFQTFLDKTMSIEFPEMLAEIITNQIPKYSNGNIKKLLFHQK
Assay: [3H]Dex competition radioligand binding in whole K562 cells (endogenous GR)
Format: cell-based

SMILES | IC50 (read-out: IC50) | IC50
Oc1ccc(C(O)CN2CCCCC2)cc1 (centres unmarked) [CpdA-03, 4-(1-hydroxy-2-(piperidin-1-yl)ethyl)phenol] | 150 nM | –
CNCC(Cl)c1ccc(OC(C)=O)cc1 (centres unmarked) [CpdA, 2-(4-acetoxyphenyl)-2-chloro-N-methylethylammonium-chloride] | – | 2500 nM
